Measurements from patent US9232796B2, “Herbicidal compositions comprising 4-amino-3-chloro-5-fluoro-6-(4-chloro-2-fluoro-3-methoxyphenyl) pyridine-2-carboxylic acid or a derivative thereof and acetyl-CoA carboxylase (ACCase) inhibitors” (DOW AGROSCIENCES LLC, priority 2012, dated 2016).

Tests used:
ECHOR = assay: Example VI in-water applied ternary mixtures, greenhouse, transplanted paddy rice weeds; type: in vivo, Echinochloa oryzoides (Ard.) Fritsch
Protocol: (§1) Weed seeds or nutlets of the desired test plant species were planted in puddled soil (mud) prepared by mixing a shredded, non-sterilized mineral soil (50.5 percent silt, 25.5 percent clay, and 24 percent sand, with a pH of about 7.6 and an organic matter content of about 2.9 percent) and water at a 1:1 volumetric ratio. The prepared mud was dispensed in 365 mL aliquots into 16-ounce (oz.) non-perforated plastic pots with a surface area of 86.59 square centimeters (cm^2) leaving a headspace of 3 centimeters (cm) in each pot. Mud was allowed to dry overnight prior to planting or transplanting. Rice seeds were planted in Sun Gro MetroMix® 306 planting mixture, which typically has a pH of 6.0 to 6.8 and an organic matter content of about 30 percent, in plastic plug trays. Seedlings at the second or third leaf stage of growth were transplanted into 860 mL of mud contained in 32-oz. non-perforated plastic pots with a surface area of 86.59 cm^2 4 days prior to herbicide application. The paddy was created by filling the headspace of the pots with 2.5 to 3 cm of water. When required to ensure good germination and healthy plants, a fungicide treatment and/or other chemical or physical treatment was applied. The plants were grown for 4-22 days in a greenhouse with an approximate 14 hr. photoperiod which was maintained at about 29° C. during the day and 26° C. during the night. Nutrients were added as Osmocote® (19:6:12, N:P:K+minor nutrients) at 2 g per 16-oz. pot and 4 g per 32-oz. pot. Water was added on a regular basis to maintain the paddy flood, and supplemental lighting was provided with overhead metal halide 1000-Watt lamps as necessary. The plants were employed for testing when they reached the first through fourth true leaf stage.
(§2) Treatments consisted of the benzyl ester of 4-amino-3-chloro-5-fluoro-6-(4-chloro-2-fluoro-3-methoxy-phenyl)pyridine-2-carboxylic acid (Compound A), formulated as an SC (suspension concentrate), an ACCase inhibitor herbicide, and a third herbicidal component, each applied alone and in ternary combination. Forms of compound A were applied on an acid equivalent basis.
(§3) The ACCase inhibitor component was applied on an active ingredient basis and included cyhalofop-R-butyl formulated as Clincher® G and metamifop formulated as Metamifop EC. Other herbicidal components were applied on an active ingredient or acid equivalent basis depending on the compound and included penoxsulam formulated as Grasp® SC, bentazon sodium formulated as Basagran®, triclopyr […] (TEA) salt formulated as Grandstand® R, benzobicyclon formulated as Benzobicyclon, benfuresate formulated as Full Slot® WG, pyraclonil formulated as Pyraclon® Flowable, mefenacet (technical grade material), and pretilachlor (technical grade material).
(§4) Treatment requirements for each compound or herbicidal component were calculated based upon the rates being tested, the concentration of active ingredient or acid equivalent in the formulation, an application volume of 1 mL per component per pot, and an application area of 86.59 cm^2 per pot.
(§5) For formulated compounds, a measured amount was placed in an individual 100 or 200 mL glass vial and was dissolved in a volume of 1.25% (v/v) Agri-Dex® crop oil concentrate to obtain application solutions.
(§6) For technical grade compounds, a weighed amount was placed in an individual 100 to 200 mL glass vial and was dissolved in a volume of acetone to obtain concentrated stock solutions.
(§7) Applications were made by injecting with a pipetter appropriate amounts of the application solutions, into the aqueous layer of the paddy. Control plants were treated in the same manner with the solvent blank. Applications were made so that all treated plant material received the same concentrations of acetone and crop oil concentrate.
(§8) The treated plants and control plants were placed in a greenhouse as described above and water was added as needed to maintain a paddy flood. […]

FIMMI = assay: as above; type: in vivo, Fimbristylis miliacea (L.) Vahl; details: Table 67, 50 gai/ha, 24 DAA
Protocol: as §1, §2, §3, §4, §5, §6, §7, §8

ECHCG = assay: as above; type: in vivo, Echinochloa crus-galli (L.) Beauv.; details: Table 67, 100 gai/ha, 21 DAA
Protocol: as §1, §2, §3, §4, §5, §6, §7, §8

IPOHE = assay: Example I postemergence foliar-applied, greenhouse, direct seeded rice weeds; type: in vivo, Ipomoea hederacea Jacq.
Excerpt: (§9) Seeds or nutlets of the desired test plant species were planted in a soil matrix prepared by mixing a loam or sandy loam soil (e.g., 28.6 percent silt, 18.8 percent clay, and 52.6 percent sand, with a pH of about 5.8 and an organic matter content of about 1.8 percent) and calcareous grit in an 80 to 20 ratio. The soil matrix was contained in plastic pots with a volume of 1 quart and a surface area of 83.6 square centimeters (cm^2). When required to ensure good germination and healthy plants, a fungicide treatment and/or other chemical or physical treatment was applied. The plants were grown for 8-22 days in a greenhouse with an approximate 14 hr. photoperiod which was maintained at about 29° C. during the day and 26° C. during the night. Nutrients (Peters Excel® 15-5-15 5-Ca 2-Mg and iron chelate) were applied in the irrigation solution as needed and water was added on a regular basis. Supplemental lighting was provided with overhead metal halide 1000-Watt lamps as necessary. The plants were employed for testing when they reached the first through fourth true leaf stage.
(§10) Treatments consisted of the acid or esters of 4-amino-3-chloro-5-fluoro-6-(4-chloro-2-fluoro-3-methoxy-phenyl)pyridine-2-carboxylic acid (Compound A), each formulated as an SC (suspension concentrate), and various herbicidal components alone and in combination.
(§11) Other herbicidal components were applied on an acid equivalent (ae) or active ingredient (ai) basis and included acetyl coA carboxylase (ACCase)-inhibiting herbicides (cyclohexanedione and aryloxyphenoxypropionate chemical classes) cyhalofop-butyl formulated as Clincher® SF (285 gr ai/L EC), diclofop-methyl formulated as Hoelon® 3EC, fenoxaprop-p-ethyl+isoxadifen-ethyl formulated as RiceStar® HT (0.58 lb./gal EC), fenoxaprop-p-ethyl+mefenpyr diethyl formulated as Puma® IEC, metamifop formulated as Metamifop EC, haloxyfop-methyl formulated as Gallant Super®, fluazifop-p-butyl formulated as Fusilade® DX, quizalofop-p-ethyl formulated as Assure® II, profoxydim formulated as Aura® 20EC, clethodim applied as Intensity®, sethoxydim formulated as Poast®, and tralkoxydim formulated as Achieve®.
(§12) Treatment requirements were calculated based upon the rates being tested, the concentration of active ingredient or acid equivalent in the formulation, and a 12 mL application volume at a rate of 187 L/ha.
(§13) For treatments comprised of formulated compounds, measured amounts of compounds were placed individually in 25 mL glass vials and diluted in a volume of 1.25% (v/v) Agri-Dex® crop oil concentrated to obtain 12× stock solutions. […] Application solutions were prepared by adding an appropriate amount of each stock solution (e.g., 1 mL) and diluted to the appropriate final concentrations with the addition of 10 mL of an aqueous mixture of 1.25% (v/v) crop oil concentrate so that the final spray solutions contained 1.25+/−0.05% (v/v) crop oil concentrate.
(§14) All stock solutions and applications solutions were visually inspected for compound compatibility prior to application. Spray solutions were applied to the plant material with an overhead Mandel track sprayer equipped with a 8002E nozzles calibrated to deliver 187 L/ha over an application area of 0.503 m^2 at a spray height of 18 to 20 inches (46 to 50 cm) above average plant canopy height. Control plants were sprayed in the same manner with the solvent blank.
(§15) The treated plants and control plants were placed in a greenhouse as described above and watered by sub-irrigation to prevent wash-off of the test compounds. After approximately 3 weeks, the condition of the test plants as compared with that of the untreated plants was determined visually and scored on a scale of 0 to 100 percent where 0 corresponds to no injury or growth inhibition and 100 corresponds to complete kill. […]

BRAPP = assay: as above; type: in vivo, Brachiaria platyphylla (Griseb.) Nash
Excerpt: as §9, §10, §11, §12, §13, §14, §15

ECHCO = assay: as above; type: in vivo, Echinochloa colona (L.) Link
Excerpt: as §9, §10, §11, §12, §13, §14, §15

CYPRO = assay: Example II in-water applied, greenhouse, transplanted paddy rice weeds; type: in vivo, Cyperus rotundus L.
Protocol: as §1, with “When required to ensure good germination and healthy plants, a fungicide treatment and/or other chemical or physical treatment was applied.” left out
(§16) Treatments consisted of the acid or esters of 4-amino-3-chloro-5-fluoro-6-(4-chloro-2-fluoro-3-methoxy-phenyl)pyridine-2-carboxylic acid (compound A) each formulated as an SC (suspension concentrate) and various herbicidal components alone and in combination.
as §5
as §7, with “solutions, individually and sequentially,” for “solutions,”
(§17) The treated plants and control plants were placed in a greenhouse as described above and water was added as needed to maintain a paddy flood. After approximately 3 weeks the condition of the test plants as compared with that of the untreated plants was determined visually and scored on a scale of 0 to 100 percent where 0 corresponds to no injury or growth inhibition and 100 corresponds to complete kill.
(§18) Colby's equation was used to determine the herbicidal effects expected from the mixtures (Colby, S. R. 1967. Calculation of the synergistic and antagonistic response of herbicide combinations. Weeds 15:20-22.).
(§19) The following equation was used to calculate the expected activity of mixtures containing two active ingredients, A and B: Expected=A+B−(A×B/100)

SCPJU [1] = assay: Example I postemergence foliar-applied, greenhouse, direct seeded rice weeds; type: in vivo, Schoenoplectus juncoides (Roxb.) Palla
Excerpt: as §9, §10, §11, §12, §13, §14, §15

SCPJU [2] = assay: Example II in-water applied, greenhouse, transplanted paddy rice weeds; type: in vivo, Schoenoplectus juncoides (Roxb.) Palla; details: in-water
Protocol: as §1, with “When required to ensure good germination and healthy plants, a fungicide treatment and/or other chemical or physical treatment was applied.” left out
as §16, §5
as §7, with “solutions, individually and sequentially,” for “solutions,”
as §17, §18, §19

SMILES	Visual Weed Control (%) - 24 DAA ECHOR Obs (ECHOR; Table 67, 25 gai/ha) [%]	Visual Weed Control (%) - 24 DAA ECHOR Obs (ECHOR; Table 67, 50 gai/ha) [%]	Visual Weed Control (%) - 24 DAA FIMMI Obs (FIMMI) [%]	Visual Weed Control (%) - 21 DAA ECHCG Obs (ECHCG) [%]	Visual Weed Control (%) - 20 DAA IPOHE Obs (IPOHE; 6.75 gai/ha) [%]	Visual Weed Control (%) - 20 DAA IPOHE Obs (IPOHE; 13.5 gai/ha) [%]	Visual Weed Control (%) - 20 DAA IPOHE Obs (IPOHE; 27 gai/ha) [%]	Visual Weed Control (%) - 20 DAA BRAPP Obs (BRAPP; 6.75 gai/ha) [%]	Visual Weed Control (%) - 20 DAA BRAPP Obs (BRAPP; 13.5 gai/ha) [%]	Visual Weed Control (%) - 20 DAA ECHCO Obs (ECHCO; 6.75 gai/ha) [%]	Visual Weed Control (%) - 20 DAA ECHCO Obs (ECHCO; 13.5 gai/ha) [%]	Visual Weed Control (%) - 20 DAA ECHCO Obs (ECHCO; 27 gai/ha) [%]	Visual Weed Control (%) - 20 DAA CYPRO Obs (CYPRO; 13.5 gai/ha) [%]	Visual Weed Control (%) - 20 DAA CYPRO Obs (CYPRO; 27 gai/ha) [%]	Visual Weed Control (%) - 20 DAA SCPJU Obs (SCPJU [1]; 6.75 gai/ha) [%]	Visual Weed Control (%) - 20 DAA SCPJU Obs (SCPJU [1]; 13.5 gai/ha) [%]	Visual Weed Control (%) - 20 DAA SCPJU Obs (SCPJU [1]; 27 gai/ha) [%]	Visual Weed Control (%) - 20 DAA SCPJU Obs (SCPJU [2]; 13.5 gai/ha) [%]	Visual Weed Control (%) - 20 DAA SCPJU Obs (SCPJU [2]; 27 gai/ha) [%]
CS(=O)(=O)c1ccc(C(=O)C2=C(Sc3ccccc3)C3CCC(C3)C2=O)c(Cl)c1 (stereo not shown) [Benzobicylon]	10	10	68	20															
COC(=O)[C@@H](C)Oc1ccc(Oc2ncc(C(F)(F)F)cc2Cl)cc1 [Haloxyfop-methyl, methyl(2R)-2-[4-[[3-chloro-5-(trifluoromethyl)-2-pyridinyl]oxy]phenoxy]propanoate]					0	0	0	0	0	0	0	0	0	0	0	0	0	0	0
